Measurements as given in PubChem BioAssay (NCI).
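Step 1: Grow cells in 96-well plates. Step 2: Expose to compound for 48 hours at 5 concentrations. Step 3: Interpolate endpoints linearly; if unreached, use highest concentration. At the GI50, growth is halved. TGI marks complete inhibition of growth.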

What was measured:
Test in all cases: DTP human tumour cell line panel, 48 h
HT29 colon = system: HT29 colon
ACHN renal = system: ACHN renal
K-562 leukemia = system: K-562 leukemia
UACC-257 melanoma = system: UACC-257 melanoma
HCT-116 colon = system: HCT-116 colon
SK-MEL-5 melanoma = system: SK-MEL-5 melanoma
SF-539 CNS = system: SF-539 CNS
HCC-2998 colon = system: HCC-2998 colon
RPMI-8226 leukemia = system: RPMI-8226 leukemia
U251 CNS = system: U251 CNS
MCF7 breast = system: MCF7 breast

| SMILES | TGI (HT29 colon) [µM] | TGI (ACHN renal) [µM] | TGI (K-562 leukemia) [µM] | TGI (UACC-257 melanoma) [µM] | TGI (HCT-116 colon) [µM] | TGI (SK-MEL-5 melanoma) [µM] | TGI (SF-539 CNS) [µM] | TGI (HCC-2998 colon) [µM] | TGI (RPMI-8226 leukemia) [µM] | TGI (U251 CNS) [µM] | TGI (MCF7 breast) [µM] | GI50 (HCT-116 colon) [µM] | GI50 (ACHN renal) [µM] | GI50 (K-562 leukemia) [µM] | GI50 (UACC-257 melanoma) [µM] | GI50 (SK-MEL-5 melanoma) [µM] | GI50 (SF-539 CNS) [µM] | GI50 (RPMI-8226 leukemia) [µM] | GI50 (MCF7 breast) [µM] |
| --- | --- | --- | --- | --- | --- | --- | --- | --- | --- | --- | --- | --- | --- | --- | --- | --- | --- | --- | --- |
| NS(=O)(=O)c1ccc(NNC(=O)c2cccc3c(=O)c4ccccc4[nH]c23)cc1 | > 100 | > 100 | > 100 | > 100 | > 100 | > 100 | > 100 | > 100 | > 100 | > 100 | > 100 |  |  |  |  |  |  |  |  |
| C1CNCCN2CCCNCCN(C1)CC2 | > 100 | > 100 |  | > 100 | > 100 | > 100 | > 100 |  | > 100 | > 100 | > 100 |  |  |  |  |  |  |  |  |
| Clc1cc2nc(C3CCCO3)[nH]c2cc1Cl (stereo not drawn) | > 100 | > 100 | > 100 | > 100 | > 100 | > 100 | > 100 | > 100 | > 100 | > 100 | > 100 |  |  |  |  |  |  |  |  |
| O=C1/C(=C/c2ccc(O)cc2)NC(=S)N1CN1CCCCC1 | > 100 | > 100 | > 100 |  | > 100 | > 100 |  |  | > 100 | > 100 | > 100 |  |  |  |  |  |  |  |  |
| CC1=C(C)C(=O)OC(C(C)(O)C2(O)CCC3(O)C4CC(Cl)C5(O)C(O)C=CC(=O)C5(C)C4CCC32C)C1 (stereo not drawn) | > 100 | > 100 | > 100 | > 100 | > 100 |  | > 100 | > 100 | 47.3 | > 100 | > 100 |  |  |  |  |  |  |  |  |
| c1ccc(Cc2cccc3cc(-c4ccc(-c5ccccc5)cc4)[nH]c23)cc1 | > 100 | > 100 |  | > 100 | > 100 | > 100 | > 100 | > 100 | > 100 | > 100 | > 100 |  |  |  |  |  |  |  |  |
| CN(Cc1cnc2nc(N)nc(N)c2n1)c1ccc(C(=O)NC(CCS(=O)(=O)O)C(=O)O)cc1 (stereo not drawn) | > 100 | > 100 |  | > 100 |  | > 100 | > 100 | > 100 | > 100 |  | > 100 |  |  |  |  |  |  |  |  |
| CN(c1c(Cl)cccc1Cl)S(=O)(=O)c1ccccc1[N+](=O)[O-] | > 100 | > 100 |  | > 100 | > 100 |  | > 100 | > 100 | > 100 | > 100 | > 100 |  |  |  |  |  |  |  |  |
| COc1ccc(-c2cc(-c3ccccc3)n(C3OC(COC(C)=O)C(OC(C)=O)C(OC(C)=O)C3OC(C)=O)c(=S)c2C#N)cc1 (stereo not drawn) | 18.7 | 29.7 | > 100 |  | 19.2 | 19.4 | 14.4 | > 100 | 16.7 | 18.7 | > 100 |  |  |  |  |  |  |  |  |
| Cc1nn2c(N)cc(=O)nc2nc1/C=C/c1ccc(N(C)C)cc1 | > 100 | > 100 | > 100 | > 100 | > 100 | > 100 |  | 23.3 | > 100 | > 100 | > 100 |  |  |  |  |  |  |  |  |
| NC(CCCCCP(=O)(O)O)C(=O)O (stereo not drawn) | > 100 | > 100 | > 100 | > 100 | > 100 | > 100 | > 100 | > 100 | > 100 | > 100 |  |  |  |  |  |  |  |  |  |
| CN(C)c1cccc(-c2cc(=O)c3ccccc3[nH]2)c1 | > 100 | > 100 |  | > 100 | > 100 |  | > 100 | > 100 | > 100 | > 100 |  | 58.6 |  |  |  |  |  |  |  |
| CN(C)c1nc(N(C)C)nc(N(C)CN(C)c2ccccc2)n1 | > 100 | > 100 | > 100 | > 100 | > 100 | > 100 | > 100 | > 100 |  | > 100 |  |  |  |  |  |  |  |  |  |
| C=C1C(=O)OC2/C=C(\C)CC/C=C(/C)CC(OC(=O)/C(=C/CO)CO)C12 (stereo not drawn) | 75.3 | 33.5 | > 100 | 36.3 |  | 31.2 | 66.3 | 41.3 | 72.7 | 47 | 48.7 |  |  |  |  |  |  |  |  |
| O=C(NC(=O)c1cn(CCN2CCNCC2)c(=O)[nH]c1=O)OCc1ccccc1 | > 100 | > 100 | > 100 |  | > 100 | > 100 | > 100 |  | > 100 | > 100 |  |  |  |  |  |  |  |  |  |
| C/C(Cl)=N\OC(=O)Nc1ccc([N+](=O)[O-])cc1 | 38.7 | 9.2 | 4.22 | 30.9 | 22.2 | 31.2 | 31.8 | 29.8 |  | 33.8 | 5.73 |  |  |  |  |  |  |  |  |
| CN1CCc2c(sc3nc(Nc4ccccc4)n(N)c(=O)c23)C1 | > 100 | > 100 | > 100 | > 100 | > 100 | > 100 | > 100 |  | > 100 |  | > 100 |  |  |  |  |  |  |  |  |
| CCN(CC)CCN1C(=O)c2cccc3c(-c4ccc5c(c4)ncn5C4CCCCC4)ccc(c23)C1=O |  | 2.96 | 3.97 | 3.74 |  | 2.61 | 2.75 |  | 3.53 |  | 4.65 |  | 1.16 | 0.476 | 2.23 | 1.32 | 1.37 | 1.17 | 1.74 |
| O=C1C=C2S[C@H]3C[C@]2(C=C1Br)c1c(c(O)c2c4c1=NCCC=4C=N2)N3 | 1.55 | 1.76 |  | 0.557 | 0.342 | 2.38 | 3.03 | 4.98 |  | 3.17 |  |  |  |  |  |  |  |  |  |
| N#CS/C(C(Cl)=C(Cl)Cl)=C(/Cl)[N+](=O)[O-] |  | 3.1 | 1.62 | 3.79 | 3 | 6.37 | 16.1 | 34.6 | 4.25 | 30 | 29.3 |  |  |  |  |  |  |  |  |
| O=C(N/N=C(/COc1cccc(Cl)c1)N=Cc1ccncc1)c1ccncc1 | > 100 | > 100 | > 100 | > 100 | > 100 |  | > 100 | > 100 | > 100 | > 100 | > 100 |  |  |  |  |  |  |  |  |
| Nn1c(CNc2ccc(-c3nnc(Nc4ccc(Cl)cc4)n3N)cc2)nnc1Nc1ccc(Cl)cc1 | > 100 | > 100 | > 100 | > 100 | > 100 | > 100 |  | > 100 | > 100 | > 100 | > 100 |  |  |  |  |  |  |  |  |
